Columns and labels:
[1] = Test method 5: spray on tomato seedlings carrying larvae of resistant tobacco whiteflies; conditions: Bemisia tabaci
[2] = tested on: resistant cotton aphids (Aphis gossypii) (lineages collected in Miyazaki prefecture in 2012, screened with imidacloprid); experiment: Test method 1: foliar spray on cucumber seedlings infested with resistant cotton aphids; assay type: in vivo; conditions: Comparative Test Example 1, 500 ppm
Method: Test compounds are made to a formulation according to a similar method to that described in the Formulation example 1, and thereto is added water containing 0.03 v/v % of Shindain (registered trademark) to prepare a diluted solution containing a prescribed concentration of the test compound.
Cucumber (cucumber sativus) seedling (on the developmental stage of the second true leaf) is planted in a cup, and approximately 30 resistant cotton aphids (Aphis gossypii) (all stages of life) (lineages collected in Miyazaki prefecture in 2012, screened with imidacloprid). After one day, the diluted solutions are sprayed into the seedling at a ratio of 10 mL/seedling. After 5 days, the number of the surviving insects is examined and the controlling value is calculated by the following equation.
Controlling value (%)−{1−(Cb×Tai)/(Cai×Tb)}×100
wherein the symbols in the equation represent the following descriptions. • Cb: Number of the test insects in untreated group; • Cai: Number of the surviving insects at the time of the examination in untreated group; • Tb: Number of the test insects in treated group; • Tai: Number of the surviving insects at the time of the examination in treated group;
Here the “untreated group” represents a group where a similar treatment procedure to that of treated group except not using the test compound is done.

[3] = Test method 2: spray on rice seedlings, resistant brown planthopper larvae released; assay type: in vivo; conditions: Nilaparvata lugens, Comparative Test Example 2, 500 ppm
Method: Test compounds are made to a formulation according to a similar method to that described in the Formulation example 5, and thereto is added water containing 0.03 v/v % of Shindain (registered trademark) to prepare a diluted solution containing a prescribed concentration of the test compound.
Rice (Oryza sativa) seedling (on the developmental stage of the second true leaf) is planted in a container, and the diluted solutions are sprayed into the seedling in a ratio of 10 mL/seedling. Thereafter, 20 of 3rd instar larvae of resistant brown planthoppers (Nilaparvata lugens) (lineages collected in Kagoshima prefecture in 2018, screened with imidacloprid) are released onto the rice leaves. After 6 days, the number of the surviving insects is examined and the mortality is calculated by the following equation.
Mortality (%)={1−the number of the surviving insects/20}×100

Measured: mortality at 500 ppm

N#Cc1ccc(-c2nc(-c3c(Cl)cncc3Cl)no2)cc1 [Comparative compound 1]
10%: [1] | [2] | [3]

Source: patent publication US20240298644A1, “HETEROCYCLIC COMPOUND AND RESISTANT HARMFUL ARTHROPOD- CONTROLLING METHOD FOR COMPOSITION CONTAINING SAME” (SUMITOMO CHEMICAL COMPANY, LIMITED, priority 2021, published 2024)
